Test results reported in ChEMBL document CHEMBL3046868, “Synthesis and biological activities of 4-trifluoromethylindole-3-acetic acid: a new fluorinated indole auxin” (2008).
Active and inactive are the calls of the source. No cut-off for these calls is given here.

How the values were obtained:
Vigna mungo [1] = experiment: Enhancement of lateral root formation in intact Vigna mungo (black gram) seedlings at 3 x 10^-4 M; format: functional, organism-based
Vigna mungo [2] = experiment: Root formation-promoting activity in Vigna mungo (black gram) cuttings at 1 x 10^-4 M relative to IBA (reference value: 35 +/- 8%); format: functional
Vigna mungo [3] = experiment: Ratio of compound activity to IBA activity for root formation-promoting activity in Vigna mungo (black gram) cuttings at 1 x 10^-4 M; format: functional
Vigna mungo [4] = experiment: Enhancement of hypocotyl swelling in intact Vigna mungo (black gram) seedlings at 3 x 10^-4 M; format: functional, organism-based
[5] = tested on: Brassica rapa subsp. pekinensis; experiment: Ratio of IAA activity to compound activity for growth inhibition of Brassica rapa subsp. pekinensis (Chinese cabbage) hypocotyl at 1 x 10^-7 to 1 x 10^-4 M; format: functional
Vigna mungo [6] = experiment: Induction of callus formation on Vigna mungo (black gram) seedlings at > 3 x 10^-3 M after 3 days; format: functional, organism-based
[7] = tested on: Brassica rapa subsp. pekinensis; experiment: Growth inhibition of Brassica rapa subsp. pekinensis (Chinese cabbage) hypocotyl at 1 x 10^-7 to 1 x 10^-4 M; format: functional
Vigna mungo [8] = experiment: Induction of callus formation on Vigna mungo (black gram) seedlings at 3 x 10^-5 M after 3 days; format: functional, organism-based
[9] = tested on: Brassica rapa subsp. pekinensis; experiment: Relative growth inhibitory activity of Brassica rapa subsp. pekinensis (Chinese cabbage) hypocotyl at 1 x 10^-7 to 1 x 10^-4 M
Vigna mungo [10] = experiment: Enhancement of hypocotyl swelling in intact Vigna mungo (black gram) seedlings at 1 x 10^-6 M; format: functional, organism-based
Vigna mungo [11] = experiment: Enhancement of lateral root formation in intact Vigna mungo (black gram) seedlings at 1 x 10^-6 M; format: functional, organism-based
Vigna mungo [12] = experiment: Enhancement of hypocotyl swelling in intact Vigna mungo (black gram) seedlings at 3 x 10^-6 M; format: functional, organism-based
Vigna mungo [13] = experiment: Enhancement of lateral root formation in intact Vigna mungo (black gram) seedlings at 3 x 10^-6 M; format: functional, organism-based
Vigna mungo [14] = experiment: Enhancement of hypocotyl swelling in intact Vigna mungo (black gram) seedlings at 1 x 10^-4 M; format: functional, organism-based
Vigna mungo [15] = experiment: Enhancement of lateral root formation in intact Vigna mungo (black gram) seedlings at 1 x 10^-4 M; format: functional, organism-based

O=C(O)Cc1c[nH]c2cccc(C(F)(F)F)c12
Activity (Vigna mungo [1]): Active | Activity (Vigna mungo [2]): 156% | Ratio (Vigna mungo [3]): 1.5 | Activity (Vigna mungo [4]): Active | Ratio [5]: 6 | Activity (Vigna mungo [6]): Active | growth inhibition (GI) [7]: Active

O=C(O)Cc1c[nH]c2cccc(Cl)c12
Activity (Vigna mungo [8]): Active | Activity (Vigna mungo [2]): 384% | relative activity (%) [9]: 6% | Activity (Vigna mungo [10]): Active | Activity (Vigna mungo [11]): Active

O=C(O)CCCc1c[nH]c2ccccc12
Activity (Vigna mungo [2]): 100%

Cc1cccc2[nH]cc(CC(=O)O)c12
Activity (Vigna mungo [8]): Active | Activity (Vigna mungo [2]): 70% | Activity (Vigna mungo [12]): Active | relative activity (%) [9]: 40% | Activity (Vigna mungo [13]): Active

O=C(O)Cc1c[nH]c2ccccc12 [INDOLE-3-ACETIC ACID]
Activity (Vigna mungo [2]): 36% | Activity (Vigna mungo [14]): Active | Activity (Vigna mungo [15]): Active
